In PubChem BioAssay AID2060499 (Molecular Pharmacology Branch, DTP, NCI, 2025):

System: 777334-354-R2-J4-PDC tumor spheroids with HUVEC/MSC, viability
Experiment: Anticancer human tumor 777334-354-R2-J4-PDC patient-derived pancreatic adenocarcinoma cell line growth inhibition [GQUAD]
Settings: for IC50: curve of first compound; for viability, T/C: stronger effect = lower value
Method in brief: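 Multi-cell-type spheroids of tumor cells with HUVEC and mesenchymal stem cells, treated with drug combinations. Concentrations descend in half-log steps from near clinical Cmax, or from 10 microM where Cmax is unknown; viability read-out.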

[1] = second compound 0.0316 µM, first compound 0.0316 µM
[2] = second compound 0.0316 µM, first compound 0.1 µM
[3] = second compound 0.0316 µM, first compound 0.316 µM
[4] = second compound 0.0316 µM, first compound 1 µM
[5] = second compound 0.0316 µM, first compound 3.16 µM
[6] = second compound 0.0316 µM, first compound 10 µM
[7] = second compound 0.1 µM, first compound 0.0316 µM
[8] = second compound 0.1 µM, first compound 0.1 µM
[9] = second compound 0.1 µM, first compound 0.316 µM
[10] = second compound 0.1 µM, first compound 1 µM
[11] = second compound 0.1 µM, first compound 3.16 µM
[12] = second compound 0.1 µM, first compound 10 µM
[13] = second compound 0.316 µM, first compound 0.0316 µM
[14] = second compound 0.316 µM, first compound 0.1 µM
[15] = second compound 0.316 µM, first compound 0.316 µM
[16] = second compound 0.316 µM, first compound 1 µM
[17] = second compound 0.316 µM, first compound 3.16 µM
[18] = second compound 0.316 µM, first compound 10 µM
[19] = second compound 1 µM, first compound 0.0316 µM
[20] = second compound 1 µM, first compound 0.1 µM
[21] = second compound 1 µM, first compound 0.316 µM
[22] = second compound 1 µM, first compound 1 µM
[23] = second compound 1 µM, first compound 3.16 µM
[24] = second compound 1 µM, first compound 10 µM
[25] = second compound 3.16 µM, first compound 0.0316 µM
[26] = second compound 3.16 µM, first compound 0.1 µM
[27] = second compound 3.16 µM, first compound 0.316 µM
[28] = second compound 3.16 µM, first compound 1 µM
[29] = second compound 3.16 µM, first compound 3.16 µM
[30] = second compound 3.16 µM, first compound 10 µM
[31] = second compound 10 µM, first compound 0.0316 µM
[32] = second compound 10 µM, first compound 0.1 µM
[33] = second compound 10 µM, first compound 0.316 µM
[34] = second compound 10 µM, first compound 1 µM
[35] = second compound 10 µM, first compound 3.16 µM
[36] = second compound 10 µM, first compound 10 µM
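Note: spheroids exposed to compounds for 7 days before readout.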

Structure (SMILES): Cc1cccc(N(C)C(=O)C2C(O)CCN2c2nc(C)cc(C(F)(F)F)c2C#N)c1 (centres undefined) + Cc1cnc(CNC(=O)c2c(=O)c3ccc(N4CCCN(C)CC4)nc3n3c2sc2ccccc23)cn1
- IC50 (second compound 0.0316 µM): > 10 µM
- IC50 (second compound 0.1 µM): > 10 µM
- IC50 (second compound 0.316 µM): > 10 µM
- IC50 (second compound 1 µM): > 10 µM
- IC50 (second compound 3.16 µM): > 10 µM
- IC50 (second compound 10 µM): > 10 µM
- viability, T/C [1]: 103%
- viability, T/C [2]: 91.3%
- viability, T/C [3]: 107%
- viability, T/C [4]: 94.5%
- viability, T/C [5]: 105%
- viability, T/C [6]: 100%
- viability, T/C [7]: 108%
- viability, T/C [8]: 92.2%
- viability, T/C [9]: 93.6%
- viability, T/C [10]: 83.5%
- viability, T/C [11]: 95%
- viability, T/C [12]: 85%
- viability, T/C [13]: 82.6%
- viability, T/C [14]: 84.9%
- viability, T/C [15]: 78.1%
- viability, T/C [16]: 84.8%
- viability, T/C [17]: 80.7%
- viability, T/C [18]: 91.7%
- viability, T/C [19]: 65.3%
- viability, T/C [20]: 73%
- viability, T/C [21]: 79.5%
- viability, T/C [22]: 75.8%
- viability, T/C [23]: 71.2%
- viability, T/C [24]: 65.5%
- viability, T/C [25]: 59.3%
- viability, T/C [26]: 67%
- viability, T/C [27]: 58.4%
- viability, T/C [28]: 62.3%
- viability, T/C [29]: 67.2%
- viability, T/C [30]: 60.6%
- viability, T/C [31]: 63%
- viability, T/C [32]: 63.2%
- viability, T/C [33]: 59.6%
- viability, T/C [34]: 64.5%
- viability, T/C [35]: 64.5%
- viability, T/C [36]: 62.7%

Structure (SMILES): O=C(c1cc(Cc2n[nH]c(=O)c3ccccc23)ccc1F)N1CCN(C(=O)C2CC2)CC1 + Cc1cnc(CNC(=O)c2c(=O)c3ccc(N4CCCN(C)CC4)nc3n3c2sc2ccccc23)cn1
- IC50 (second compound 0.0316 µM): > 10 µM
- IC50 (second compound 0.1 µM): > 10 µM
- IC50 (second compound 0.316 µM): > 10 µM
- IC50 (second compound 1 µM): > 10 µM
- IC50 (second compound 3.16 µM): > 10 µM
- IC50 (second compound 10 µM): > 10 µM
- viability, T/C [1]: 85.9%
- viability, T/C [2]: 94.2%
- viability, T/C [3]: 96.6%
- viability, T/C [4]: 92%
- viability, T/C [5]: 90.6%
- viability, T/C [6]: 75.7%
- viability, T/C [7]: 88.9%
- viability, T/C [8]: 88.2%
- viability, T/C [9]: 91.8%
- viability, T/C [10]: 88%
- viability, T/C [11]: 76.7%
- viability, T/C [12]: 70.3%
- viability, T/C [13]: 79.9%
- viability, T/C [14]: 76.5%
- viability, T/C [15]: 69.7%
- viability, T/C [16]: 75.1%
- viability, T/C [17]: 74.3%
- viability, T/C [18]: 64.9%
- viability, T/C [19]: 73.8%
- viability, T/C [20]: 75.6%
- viability, T/C [21]: 76.2%
- viability, T/C [22]: 68.8%
- viability, T/C [23]: 69.5%
- viability, T/C [24]: 60.4%
- viability, T/C [25]: 56.5%
- viability, T/C [26]: 55.9%
- viability, T/C [27]: 63%
- viability, T/C [28]: 64.2%
- viability, T/C [29]: 64.9%
- viability, T/C [30]: 56.2%
- viability, T/C [31]: 61.5%
- viability, T/C [32]: 54.2%
- viability, T/C [33]: 51.9%
- viability, T/C [34]: 55.8%
- viability, T/C [35]: 61.9%
- viability, T/C [36]: 47.7%
